Measurements: patent publication US5440031A, “1,4,10,13-tetraoxa-7,16-diazacyclooctadecane derivatives, pharmaceutical compositions containing them and their use for the removal of toxic metal ions and radioactive isotopes from living organism” (priority 1990, dated 1995)
Where a name gives a salt, the structure may show the parent alone.

Columns and labels:
[1] = radioactive isotope elimination-increasing effect, isotope into abdominal cavity, whole-body retention; format: in vivo, Swiss mice; conditions: for EI value: effectivity (isotope elimination as % related to control) multiplied by LD50/30, 0-5 weak, 5-50 medium, 50-100 good, above 100 excellent; for F factor: multiplication of isotope elimination relative to untreated animals, i.v. 50 to 100 μmol/kg, 30 to 60 minutes after isotope; for radioactivity excreted from the animal organism within 1 day / radioactivity excreted from the animal organism within 4 days / radioactivity excreted from the animal organism within 7 days: Sr-85 into abdominal cavity, single treatment, 100 μmol/kg (stated for Example 13); for radioactivity excreted from the animal organism within 1 day: control 15%; for radioactivity excreted from the animal organism within 4 days: control 25%; for radioactivity excreted from the animal organism within 7 days: control 30%
Text: The action of the compounds of formula (I) according to the invention, which manifests itself as an increase in the elimination of metal ions damaging the living organism, was investigated by using radioactive strontium or cerium ions on Swiss mice and Wistar rats of both sexes.
The elimination was studied on radioactive isotopes introduced in various routes to various sites, e.g. to the blood circulation, abdominal cavity, lungs, muscles or subcutaneous connective tissue of the experimental animals. The compound increasing the elimination of the isotopes was administered daily once or two times in the form of an injection, powder or liquid aerosol or plaster to the organism of the experimental animals. Thereafter, whole body activity measurements were performed and retention curves were taken up which then were compared to the results obtained in the control group.
The retention curves obtained were analysed on a computer. "Nonlinear Regression by the Code of BMDP-3R" (BMDP Statistical Software Manual, UCLA, Los Angeles, 1990, Chief Ed. W. J. Dixon) computer software was used for this purpose. It could be stated from the results obtained that the curves could be described by a two-component descending exponential function. Two data were calculated for characterizing the effectivity. One of these was the so-called F factor indicating the increase in the elimination in relation to the control and meaning the multiplication of the isotope elimination under effect of the test compound in relation to the untreated animals/see column (C) in Table 1/.
For the illustrative comparison of the compounds according to the invention additional characteristic data, the so-called EI values are given which were obtained by multiplying the extent of isotope elimination as percentage related to the control group (effectivity, E) with the acute toxicity value (LD50/30, innocuous, I)/see column (D) in Table 1/. Although the EI value is numerically not identical to the therapeutic ratio (safety index), it indicates in all cases to a weak or excellent activity of a product.
The radioactive isotope elimination-increasing effects of compounds prepared according to Examples 1 to 16 were compared on Swiss mice as described hereinafter.
An activity of 37 to 74 kBg (1 to 2 μCi) of radioactive strontium (Sr-85Cl2) or radioactive cerium (Ce-144Cl3), respectively, was administered into the abdominal cavity of the animals which were then divided into treatment groups consisting of 5 to 10 animals each. At 30 to 60 minutes after administration of the isotope, the animals of the treated groups were intravenously (i.v.) given the active agent used in an amount to achieve s concentration of 50 to 100 μmol/kg of body-weight in the animal organism for each treatment. The animals of the control groups were similarly treated with the carrier (sterile physiological saline or glucose solution of 5% by weight concentration) without active agent.
The amount of radioactivity introduced to the animal organism was determined immediately after administration of the isotope, thru these measurements were repeated daily or in every two the or three days in a device constructed for the purpose of the whole-body measurements on small animals. The counts observed were related to the starting activity value of the zero (0) day and a so-called retention/time correlation was obtained by considering the activity retained in the organism. The change of activity of the animal organism in the time is illustrated in FIG. 1 where the time (in days) elapsed after the treatment is shown on the abscissa and the whole-body retention as percentage is plotted on the ordinate. It can be seen that the rate of elimination of Sr-85 administered into the abdominal cavity of control animals was slow: within 1 day only 15%, within 4 days 25% and within 7 days 30% of the activity were eliminated from their organism and the elimination was even more delayed in the later period. […]

[2] = acute toxicity, LD50/30, injection into blood circulation, 30 days observation; format: in vivo, Swiss mice and Wistar rats; conditions: in vivo, iv; dose causing death of 50% of animals within 30 days; slow injection into the blood circulation during 3 to 5 minutes; mice and rats; probit analysis
Experimental: (§1) The acute toxicity values of the products prepared according to Examples 1 to 16 were determined on laboratory mice and rats in the following manner.
(§2) Solutions containing the compounds in various concentrations were prepared by using physiological saline solution or glucose solution of 5% by weight concentration and the active agents were administered in various concentrations into the blood circulation of the animals by injecting them slowly during 3 to 5 minutes. Groups consisting of 6 to 10 animals (Swiss mice and Wistar rats of both sexes) each were used for the various dose levels. […] The LD50/30 value (i.e. the dose causing the death of 50% of the experimental animals within 30 days) was determined from the number of animals died during this period by using probit analysis/D. J. Finney: Probit Analysis (2nd ed.) Cambridge University Press (1952)/. These values expressed in mmol/kg of body-weight for the active agents according to the invention are summarized in column (B) of Table 1.

[3] = test system: laboratory mice and rats; assay: as above; format: in vivo, Swiss mice and Wistar rats; conditions: dose causing death of 50% of animals within 30 days, slow injection into the blood circulation during 3 to 5 minutes, mice and rats, probit analysis
Experimental: as §1, §2

Compound	EI value [1]	F factor [1]	LD50 at 720 h [2]	Acute toxicity LD50/30 ([3]; 43200 min)	Acute toxicity LD50/30 [3]	radioactivity excreted from the animal organism within 1 day [1]	radioactivity excreted from the animal organism within 4 days [1]	radioactivity excreted from the animal organism within 7 days [1]
O=C([O-])C(C(=O)[O-])N1CCOCCOCCN(C(C(=O)[O-])C(=O)[O-])CCOCCOCC1.[Na+].[Na+].[Na+].[Na+] [1/a, N,N'-bis(dicarboxymethyl)-1,4,10,13-tetraoxa-7,16-diazacyclooctadecane tetrasodium salt]	5.40	1.8	327 µmol/kg	–	–	–	–	–
O=C([O-])C(C(=O)[O-])N1CCOCCOCCN(C(C(=O)[O-])C(=O)[O-])CCOCCOCC1.[Na+].[Na+].[Na+].[Na+] [1/b, N,N'-bis(dicarboxymethyl)-1,4,10,13-tetraoxa-7,16-diazacyclooctadecane tetrasodium salt]	9.66	2.8	–	0.379 mmol/kg	–	–	–	–
O=C([O-])C(C(=O)[O-])N1CCOCCOCCN(C(C(=O)[O-])C(=O)[O-])CCOCCOCC1.[K+].[K+].[K+].[K+] [3/a, N,N'-bis(dicarboxymethyl)-1,4,10,13-tetraoxa-7,16-diazacyclooctadecane tetrapotassium salt]	12.30	2.3	333 µmol/kg	–	–	–	–	–
O=C([O-])C(C(=O)[O-])N1CCOCCOCCN(C(C(=O)[O-])C(=O)[O-])CCOCCOCC1.[K+].[K+].[K+].[K+] [3/b, N,N'-bis(dicarboxymethyl)-1,4,10,13-tetraoxa-7,16-diazacyclooctadecane tetrapotassium salt]	8.90	1.7	–	0.272 mmol/kg	–	–	–	–
O=C(O)C(C(=O)O)N1CCOCCOCCN(C(C(=O)O)C(=O)O)CCOCCOCC1 [Example 2, N,N'-bis(dicarboxymethyl)-1,4,10,13-tetraoxa-7,16-diazacyclooctadecane tetrasodium salt containing disodium hydroxy malonate]	11.10	3.3	368 µmol/kg	–	–	–	–	–
O=C([O-])C(C(=O)[O-])N1CCOCCOCCN(C(C(=O)[O-])C(=O)[O-])CCOCCOCC1.[Mg+2].[Na+].[Na+] [Example 4, N,N'-bis(dicarboxymethyl)-1,4,10,13-tetraoxa-7,16-diazacyclooctadecane magnesium complex disodium salt]	7.30	2.3	–	–	0.211 mmol/kg	–	–	–
N.N.O=C([O-])C(C(=O)[O-])N1CCOCCOCCN(C(C(=O)O)C(=O)O)CCOCCOCC1.[Ca+2] [Example 7, N,N'-bis(dicarboxymethyl)-1,4,10,13-tetraoxa-7,16-diazacyclooctadecane calcium complex diammonium]	65.00	1.7	–	–	above 2.5 mmol/kg	–	–	–
O=C([O-])C(C(=O)[O-])N1CCOCCOCCN(C(C(=O)[O-])C(=O)[O-])CCOCCOCC1.[Ca+2].[Ca+2] [Example 8, N,N'-bis(dicarboxymethyl)-1,4,10,13-tetraoxa-7,16-diazacyclooctadecane calcium complex calcium salt]	58.00	1.6	–	–	above 1.5 mmol/kg	–	–	–
O=C([O-])C(C(=O)[O-])N1CCOCCOCCN(C(C(=O)[O-])C(=O)[O-])CCOCCOCC1.[Na+].[Na+].[Zn+2] [Example 10, N,N'-bis(dicarboxymethyl)-1,4,10,13-tetraoxa-7,16-diazacyclooctadecane zinc complex disodium salt]	3.20	2.3	–	–	0.091 mmol/kg	–	–	–
O=C([O-])C(C(=O)[O-])N1CCOCCOCCN(C(C(=O)[O-])C(=O)O)CCOCCOCC1.[Na+].[Na+].[Na+] [Example 11, N,N'-bis(dicarboxymethyl)-1,4,10,13-tetraoxa-7,16-diazacyclooctadecane trisodium salt]	2.90	2.6	111 µmol/kg	–	–	–	–	–
CC(C(=O)[O-])(C(=O)[O-])N1CCOCCOCCN(C(C(=O)[O-])C(=O)[O-])CCOCCOCC1.[Na+].[Na+].[Na+].[Na+] [Example 12, N-dicarboxymethyl-N'-(1,1'-dicarboxyethyl)-1,4,10,13-tetraoxa-7,16-diazacyclooctadecane tetrasodium salt]	7.90	1.5	305 µmol/kg	–	–	–	–	–
CCC(C(=O)O)(C(=O)O)N1CCOCCOCCN(C(C(=O)O)C(=O)O)CCOCCOCC1 [Example 13, N-dicarboxymethyl-N'-(1,1'-dicarboxypropyl)-1,4,10,13-tetraoxa-7,16-diazacyclooctadecane tetrasodium salt sodium bromide double salt]	13.30	2.1	302 µmol/kg	–	–	40%	65%	67%
CC(C(=O)O)(C(=O)O)N1CCOCCOCCN(C(C)(C(=O)O)C(=O)O)CCOCCOCC1 [Example 15, N,N'-bis(1,1'-dicarboxyethyl)-1,4,10,13-tetraoxa-7,16-diazacyclooctadecanetetrasodium salt]	6.80	1.3	450 µmol/kg	–	–	–	–	–
O=C(O)C(Cc1ccccc1)(C(=O)O)N1CCOCCOCCN(C(Cc2ccccc2)(C(=O)O)C(=O)O)CCOCCOCC1 [Example 16, N,N'-bis(benzyl-dicarboxymethyl)-1,4,10,13-tetraoxa-7,16-diazacyclooctadecane tetrasodium salt sodium bromide double salt]	7.10	1.3	470 µmol/kg	–	–	–	–	–
N,N'-bis(dicarboxymethyl)-1,4,10,13-tetraoxa-7,16-diazacyclooctadecane calcium complex disodium salt containing disodium hydroxymalonate and sodium chloride [6/a]	158.00	3.9	–	–	above 3.0 mmol/kg	–	–	–
N,N'-bis(dicarboxymethyl)-1,4,10,13-tetraoxa-7,16-diazacyclooctadecane iron(II) complex disodium salt [Example 9]	8.25	1.7	–	–	0.250 mmol/kg	–	–	–
N,N'-bis(dicarboxymethyl)-1,4,10,13-tetraoxa-7,16-diazacyclooctadeoane calcium complex disodium salt containing sodium chloride [Example 5]	145.00	3.7	–	–	above 2.5 mmol/kg	81%	84%	85%
